The values that follow come from patent US4087390A, “Somatostatin analogs and intermediates thereto” (Eli Lilly and Company, priority 1977, dated 1978).

Bridge positions count the residues as written; N and C are the ends. Square brackets hold non-standard residues; d marks the D form. Peptide text beside a SMILES is read from it.

One assay relates to glucagon secretion. Kind of assay: in vivo inhibition of glucagon secretion upon stimulation with insulin. On the set-up: species or system mongrel dogs. Conditions: infused at a rate of 0.109 μg/kg/min. Here is the method: D-Val^2, D-Trp^8 -somatostatin also was evaluated for in vivo activity in inhibiting glucagon secretion upon stimulation with insulin. Normal mongrel dogs of either sex were fasted overnight. After control blood samples had been obtained, an intravenous infusion of saline, somatostatin, or D-Val^2, D-Trp^8 -somatostatin was commenced. After 15 minutes, insulin, 0.3 units/kg., was injected intravenously. The infusion of saline, somatostatin, or the test compound was continued for two hours, and blood samples were obtained at various intervals throughout the test. The total dose of the somatostatin or test compound ranged from 120-260 μg./dog (0.07-0.13 μg/kg/min.). Administration of insulin produced a reduction in the blood glucose concentration of an increase in serum glucagon concentration.

In another assay the test system is gut motility. Put plainly: action on gut motility in conscious dogs (intralumenal pressure). Format: in vivo. The procedure: D-Val^2, D-Trp^8 -somatostatin also was tested for its action on gut motility in conscious dogs. Three dogs having intralumenal catheters placed in the antrum, duodenum, and pylorus were used. Pressure changes in the gut lumen were recorded on a Visicorder using strain gauges and miniature light beam galvanometers. After a steady state control was established, D-Val^2, D-Trp^8 -somatostatin was infused intravenously over a ten minute period. […] The minimum effective dose required to increase the pyloric pressure and to decrease the duodenum and antrum pressures was >0.125 to <0.25 μg./kg.-10 minutes.

The subject of another assay is growth hormone secretion. Put plainly: release of growth hormone in sodium pentobarbital-stimulated rats. Format: in vivo, Spraque-Dawley rats. The note with it: subcutaneously, serum growth hormone 20 minutes after administration. The procedure:
D-Val^2, D-Trp^8 -somatostatin also was tested for its activity with respect to the release of growth hormone. The procedure which was employed is carried out using normal male Spraque-Dawley rats weighing 100-120 grams (Laboratory Supply Company, Indianapolis, Indiana). The test is a modification of the method of P. Brazeau, W. Vale, and R. Guilleman, Endocrinology, 94, 184 (1974). In this assay, five groups of eight rats each were employed. Sodium pentobarbital was administered intraperitoneally to all of the rats to stimulate growth hormone secretion. One group served as the control and received only saline. Two of the groups received somatostatin, one at 2 μg./rat, subcutaneously, and the other at 50 μg./rat, subcutaneously. The other two groups received D-Val^2, D-Trp^8 -somatostatin, one at 2 μg./rat, subcutaneously, and the other at 50 μg./rat, subcutaneously. The serum concentration of growth hormone was measured 20 minutes after simultaneous administration of sodium pentobarbital and test compound. The degree of inhibition of serum growth hormone concentration then was determined with respect to the control group, and the relative activities of D-Val^2, D-Trp^8 -somatostatin and somatostatin itself were compared. […]

The test system of assay [1] is glucagon and insulin secretion. Kind of assay: in vivo inhibition of glucagon and insulin secretion upon stimulation with L-alanine. On the set-up: species or system mongrel dogs. Conditions: intravenous infusion. The procedure: D-Val^2, D-Trp^8 -somatostatin was tested for its in vivo activity in inhibiting glucagon and insulin secretion upon stimulation with L-alanine. Normal mongrel dogs of either sex were fasted overnight. Control blood samples were obtained, and then an intravenous infusion of saline, somatostatin, or D-Val^2, D-Trp^8 -somatostatin was started. After 30 minutes, L-alanine additionally was administered intravenously for a period of 15 minutes. The infusion of saline, somatostatin, or D-Val^2 D-Trp^8 -somatostatin was continued for 15 minutes after completion of the L-alanine infusion. The infusion of L-alanine caused an abrupt increase in serum concentration of glucagon and insulin which returned to control concentration upon termination of the L-alanine infusion. From the above it was determined that the minimal effective concentration of D-Val^2, D-Trp^8 -somatostatin is about 194 nanograms/kg./min. whereas the minimal effective concentration of somatostatin is 100-200 nanograms/kg./min.

For assay [2], the system named is secretion from the pancreas induced by secretin and cholecystokinin. Put plainly: inhibition of pancreatic secretion in dogs with pancreatic and total gastric fistula. Format: in vivo. Here is the method:
In three dogs having both pancreatic and total gastric fistula, secretion from the pancreas was induced by infusion of secretin at 2 units/kg-hr. and cholecystokinin at 0.45 unit/kg-hr., and secretion of gastric HCl by infusion of tetragastrin at 0.5 μg/kg-hr. After a steady response was established, each dog received D-Val^2, D-Trp^8 -somatostatin for one hour at 0.25 μg/kg-hr. The peak inhibitory effect expressed as percent change over control for total protein was -72%. This corresponds to the inhibitory effect obtained by administration of about 0.5 μg/kg-hr. of somatostatin.

Assay [3] concerns gastric HCl secretion induced by the C-terminal tetrapeptide of gastrin. Put plainly: in vivo inhibition of gastric acid secretion in dogs with chronic fistula and Heidenhain pouch. The procedure: D-Val^2, D-Trp^8 -somatostatin was tested in dogs for its in vivo inhibition of gastric acid secretion. In six dogs with chronic fistula and Heidenhain pouch, gastric HCl secretion was induced by infusion of the C-terminal tetrapeptide of gastrin at 0.5 μg/kg-hr. Each dog served as its own control, receiving on a separate day only the tetrapeptide. On another day, the six dogs received the tetrapeptide, and after one hour of steady state secretion of HCl, D-Val^2, D-Trp^8 -somatostatin was infused at 0.25 μg/kg-hr. for one hour. Collection of gastric acid samples was continued for an additional 1.5 hours at 15 minute intervals. The samples were titrated to pH 7 with an automatic titrator. The maximal inhibitory effect of the D-Val^2, D-Trp^8 -somatostatin was extrapolated against the dose-response curve of somatostatin, and the relative potency of the analog to that of somatostatin is expressed as percent activity. D-Val^2, D-Trp^8 -somatostatin inhibited steady state acid secretion induced by the C-terminal tetrapeptide of gastrin by 61.9 ± 3.4% standard error of mean. This effect is equivalent to that of 0.324 μg/kg-hr. of somatostatin. Its activity relative to that of somatostatin thus is 130%.

Setting [4] is: intravenous infusion over ten minutes.

For the compound `CC(C)[C@@H](NC(=O)[C@H](C)N)C(=O)N[C@H]1CSSC[C@@H](C(=O)O)NC(=O)[C@H](CO)NC(=O)[C@H]([C@@H](C)O)NC(=O)[C@H](Cc2ccccc2)NC(=O)[C@H]([C@@H](C)O)NC(=O)[C@H](CCCCN)NC(=O)[C@@H](Cc2c[nH]c3ccccc23)NC(=O)[C@H](Cc2ccccc2)NC(=O)[C@H](Cc2ccccc2)NC(=O)[C@H](CC(N)=O)NC(=O)[C@H](CCCCN)NC1=O` [D-Val^2, D-Trp^8 -somatostatin] (H-A[dV]CKNFF[dW]KTFTSC-OH; disulfide 3-14), the “effect on the rise in serum glucagon concentration produced by insulin hypoglycemia” value with glucagon secretion is given as “partial inhibition”. The “gut motility activity compared with somatostatin” value with gut motility (based on minimum effective dose) is listed as “approximately equivalent to that of somatostatin itself”. Besides, in the assay on gut motility (setting [4]), the “effect on intralumenal pressure in the pylorus” value is “initially increased the intralumenal pressure in the pylorus and then decreased it”; the “effect on pressure in the duodenum and the antrum” value is reported as “remained depressed throughout the test”. In the assay on growth hormone secretion (2 μg./rat), the “inhibition of the increase in growth hormone secretion over control” value stood at 21%. Moreover, the “inhibition of the increase in growth hormone secretion over control” value with growth hormone secretion (50 μg./rat) is given as 88%. Further, the “minimal effective concentration (inhibition of glucagon and insulin secretion)” value in assay [1] is on record as “about 194 nanograms/kg./min”. In addition, the “dose of somatostatin giving the corresponding inhibitory effect on pancreatic secretion” value in assay [2] (compared with 0.25 μg/kg-hr. of the analog) is “about 0.5 μg/kg-hr”. In addition, the “peak inhibitory effect expressed as percent change over control for total protein” value in assay [2] (three dogs, 0.25 μg/kg-hr. for one hour) was -72%. The “dose of somatostatin of equivalent effect on gastric acid secretion” value in assay [3] (effect of 0.25 μg/kg-hr. extrapolated against the dose-response curve of somatostatin) was 0.324 μg/kg-hr. For the same compound, in assay [3] (relative potency expressed as percent activity), the “activity relative to that of somatostatin (gastric acid secretion)” value amounted to 130%. Also, in assay [3] (six dogs, infused at 0.25 μg/kg-hr. for one hour, maximal inhibitory effect, ± standard error of mean), the “inhibition of steady state acid secretion induced by the C-terminal tetrapeptide of gastrin” value is on record as 61.9 ± 3.4%.
